Measured values as given in US10548897B2, “KSR antagonists” (Icahn School of Medicine at Mount Sinai, priority 2015, dated 2020).
Structures can show the parent of a compound that is named as a salt. Where two headings read alike, the source gives them in different places.

What was measured:
[1] = target: KSR2 (purified hKSR2-rMEK1 complex) (Homo sapiens (Human), UniProt Q6VAB6); test: ATP-biotin probe labeling and inhibitor competition (KSR2 band); type: binding; conditions: for competition of ATPbiotin probe labeling in KSR2:MEK1 complexes (in words): screen / SAR statements; for KSR binding (assessed): panel of known kinase inhibitors
From the text: Human KSR2 (residues 634-950) and rabbit MEK1 (residues 1 to 393) were codon optimized for insect cell expression by DNA 2.0. Inserts were expressed with TEV cleavable 6×-His tags from the pFastBac Dual expression vector. Bacmids were used to transfect adherent SF21 cells and viruses were subsequently titred to high levels through serial infections of SF21 cells. […] Briefly, following infections, cells were harvested, lysed, and affinity purified using Co2+ sepharose resin (GoldBio). […] Dialysis retentate was diluted 3 fold and then applied to a Resourse S ion exchange column. […] One-to-one hKSR2-MEK1 complexes were captured in late fractions from an increasing salt gradient. Complexes were later applied to a 120 mL Superdex 200 gel filtration column and finally concentrated to approximately 10 mg/mL before flash freezing for biochemical assays.
The ATP-biotin assay was performed in buffer containing 25 mM Tris pH 7.5, 150 mM NaCl, 10 mM MgCl2, and 2% DMSO. […] In particular, hKSR2-rMEK1 was pre-incubated with 20 μM of the indicated compounds for 15 minutes. Then, ATP-biotin (Pierce Cat. #88310) was added to a final concentration of 2 μM. Reactions were incubated at room temperature for 5 minutes before being stopped by the addition of 6×SDS loading dye. […] Enhanced chemiluminescence signals corresponding to labeling on KSR2 and MEK1 were visualized and quantified using the Biodoc system (Biorad). Relative signals of Streptavidin HRP on bands corresponding to KSR2 and MEK1 in the presence of compounds relative to DMSO controls were used to determine ‘Percent Inhibition of ATP Probe Labeling’.
For the ATP^biotin labeling competition screen, samples were applied to a 4-20% Tris-HCl gel, separated, and then transferred to a nitrocellulose membrane. The membrane was blocked with 5% bovine serum albumin diluted in TBS-T for 30 minutes and subsequently probed with the Pierce™ High Sensitivity Streptavidin-HRP. After several washes, the membranes were visualized using enhanced chemiluminescence on a Biodoc (Biorad).

[2] = test system: MAPK pathway readouts (pERK, pMEK, pRSK) in A375 and HCT-116; test: Western blot of MAPK pathway readouts, treatment with trametinib combinations; type: cell-based; conditions: for MAPK pathway inhibition (pERK, pMEK, pRSK) in combination with trametinib: combined with trametinib, A375 and HCT-116
[3] = test system: KSR-stimulated MEK and ERK phosphorylation; test: Cell-based reconstitution system monitoring KSR-driven MAPK signaling; conditions: for suppression of KSR-stimulated MEK and ERK phosphorylation: KSR expression-dependent MAPK signaling
From the text: To assess the biological function of lead compounds as Ras-MAPK pathway antagonists, a simplified cell-based reconstitution system was developed to directly monitor KSR-driven MAPK signaling. […] Based on similarity in phenotype and direct-binding activity, Compound 21 was identified as a small molecule mimic of KSR alleles that suppress oncogenic Ras mutations.

KSR2:B-RAF^F667E dimers = KSR2:B-RAF^F667E dimers (Homo sapiens, UniProt Q6VAB6); test: Biolayer inferometry of KSR2:B-RAF dimerization (Octet Red96); type: binding; conditions: compound at 25 μM
Protocol: B-RAF and B-RAF mutants (F667E+/−R509H) were immobilized on sensor-heads and KSR2:MEK1 or MEK1 assembly was monitored. Curves indicate dose ranges of KSR2:MEK1 or MEK1 from 625 nM to 10 μM. In all plots, association occurred from 0 to 660 seconds, and dissociation was monitored thereafter up to 1500 seconds. Compound 21 and trametinib were added in the presence of KSR2:MEK1 at a concentration of 25 μM each.
To directly investigate the impact of Compound 21 on KSR2:B-RAF dimerization, bio-layer inferometry (BLI) was utilized to monitor real-time association and dissociation of KSR2:MEK1 or free MEK1 to a sensor tethered with immobilized B-RAF.
To specifically monitor KSR2:B-RAF dimerization relative to other possible interactions, a mutation in B-RAF^F667E was identified that eliminates binding to free MEK but not KSR2-MEK1 complexes, as shown in FIGS. 7C-7D. […]
Interactions between purified B-RAF and the KSR2:MEK1 complex were measured using biolayer inferometry on the Octet Red96 system (Forte Bio). […] Association and dissociation was monitored over 660 and 840 seconds, respectively. Data sets were normalized and analysed using global fit binding models (Fortebio software). […]

[4] = target: MEK1 (purified hKSR2-rMEK1 complex) (Oryctolagus cuniculus (Rabbit), UniProt P29678); test: ATP-biotin probe labeling competition (MEK1 band); type: binding; conditions: competition with free ATP, purified KSR2:MEK1; read-out: free ATP IC50, ATPbiotin labeling of MEK1
From the text: Human KSR2 (residues 634-950) and rabbit MEK1 (residues 1 to 393) were codon optimized for insect cell expression by DNA 2.0. Inserts were expressed with TEV cleavable 6×-His tags from the pFastBac Dual expression vector. Bacmids were used to transfect adherent SF21 cells and viruses were subsequently titred to high levels through serial infections of SF21 cells. […] Briefly, following infections, cells were harvested, lysed, and affinity purified using Co2+ sepharose resin (GoldBio). […] Dialysis retentate was diluted 3 fold and then applied to a Resourse S ion exchange column. This step removed excess MEK1, which binds weakly to the S column. One-to-one hKSR2-MEK1 complexes were captured in late fractions from an increasing salt gradient. Complexes were later applied to a 120 mL Superdex 200 gel filtration column and finally concentrated to approximately 10 mg/mL before flash freezing for biochemical assays.
The ATP-biotin assay was performed in buffer containing 25 mM Tris pH 7.5, 150 mM NaCl, 10 mM MgCl2, and 2% DMSO. Purified hKSR2-rMEK1 was assayed at 0.5 μM. In particular, hKSR2-rMEK1 was pre-incubated with 20 μM of the indicated compounds for 15 minutes. Then, ATP-biotin (Pierce Cat. #88310) was added to a final concentration of 2 μM. […] Enhanced chemiluminescence signals corresponding to labeling on KSR2 and MEK1 were visualized and quantified using the Biodoc system (Biorad). […]

[5] = ATPbiotin probe labeling competition, 0.1 μM KSR2:MEK1, 27 nM to 20 μM compound, triplicate, read-out: KSR2 IC50

KSR2 (purified hKSR2-rMEK1 complex), sequence (Q6VAB6 634-950): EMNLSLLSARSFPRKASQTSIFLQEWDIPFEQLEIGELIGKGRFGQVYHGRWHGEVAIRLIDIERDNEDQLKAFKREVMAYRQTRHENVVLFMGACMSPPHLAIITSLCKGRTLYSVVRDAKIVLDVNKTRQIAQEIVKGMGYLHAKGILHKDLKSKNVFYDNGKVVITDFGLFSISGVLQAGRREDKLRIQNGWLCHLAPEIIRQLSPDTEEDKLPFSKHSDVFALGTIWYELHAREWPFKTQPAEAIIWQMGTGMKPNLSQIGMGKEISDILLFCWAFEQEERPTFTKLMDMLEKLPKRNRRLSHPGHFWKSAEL
KSR2 (purified hKSR2-rMEK1 complex), sequence (P29678 whole entry partner, the tested form may be a part): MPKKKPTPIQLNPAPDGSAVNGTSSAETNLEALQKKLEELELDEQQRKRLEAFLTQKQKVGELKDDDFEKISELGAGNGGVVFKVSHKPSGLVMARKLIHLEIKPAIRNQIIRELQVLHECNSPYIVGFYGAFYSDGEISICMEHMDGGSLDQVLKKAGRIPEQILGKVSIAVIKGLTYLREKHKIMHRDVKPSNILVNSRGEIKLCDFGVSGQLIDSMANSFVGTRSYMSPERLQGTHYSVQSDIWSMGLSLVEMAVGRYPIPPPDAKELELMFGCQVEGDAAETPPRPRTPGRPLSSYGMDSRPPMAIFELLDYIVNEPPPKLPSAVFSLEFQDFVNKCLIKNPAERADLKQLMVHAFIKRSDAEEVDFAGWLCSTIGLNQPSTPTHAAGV
MEK1 (purified hKSR2-rMEK1 complex), sequence (P29678 whole entry, the tested form may be a part): as the sequence (P29678 whole entry partner, the tested form may be a part) above
MEK1 (purified hKSR2-rMEK1 complex), sequence (Q6VAB6 634-950 partner): as the sequence (Q6VAB6 634-950) above

## COc1cc2nccc(Nc3ccc(Oc4ccccc4)cc3)c2cc1OC.Cl [Compound 11, 6,7-Dimethoxy-N-(4-phenoxyphenyl)quinolin-4-amine hydrochloride]
[1]
  competition of ATPbiotin probe labeling in KSR2:MEK1 complexes (in words): moderately tolerated

## CS(=O)(=O)CCNCc1ccc(-c2ccc3ncnc(Nc4ccc(OCc5cccc(F)c5)c(Cl)c4)c3c2)o1 [lapatinib, reference compound]
[1]
  KSR binding (assessed): non-KSR binders
[2]
  MAPK pathway inhibition (pERK, pMEK, pRSK) in combination with trametinib: not observed

## COc1cc2ncnc(Nc3ccc(Oc4ccccc4)cc3)c2cc1OC.Cl [Compound 2, 6,7-Dimethoxy-N-(4-phenoxyphenyl)quinazolin-4-amine]
[1]
  competition of ATPbiotin probe labeling in KSR2:MEK1 complexes (in words): competitor of probe labeling

## COc1cc2ncnc(Nc3ccc(Oc4ccccc4)c(C)c3C)c2cc1OC.Cl [Compound 50, N-(2,3-Dimethyl-4-phenoxyphenyl)-6,7-dimethoxyquinazolin-4-amine hydrochloride]
[1]; [5]
  IC50: > 10 µM
[3]
  suppression of KSR-stimulated MEK and ERK phosphorylation: inactive

## COc1cc2/c(=N/c3ccc(Oc4ccccc4)cc3)ncn(C)c2cc1OC [Compound 32, (Z)—N-(6,7-Dimethoxy-1-methylquinazolin-4(1H)-ylidene)-4-phenoxyaniline]
[1]; [5]
  IC50: > 10 µM
[1]
  competition of ATPbiotin probe labeling in KSR2:MEK1 complexes (in words): greatly diminishes KSR2:MEK1 activity

## CCCS(=O)(=O)Nc1ccc(F)c(C(=O)c2c[nH]c3ncc(Cl)cc23)c1F [PLX4720]
[2]
  MAPK pathway inhibition (pERK, pMEK, pRSK) in combination with trametinib: did not display the same pathway inhibition

## CC(=O)Nc1cccc(-n2c(=O)n(C3CC3)c(=O)c3c(Nc4ccc(I)cc4F)n(C)c(=O)c(C)c32)c1 [trametinib, reference compound]
[2]; alone, compared with Compound 21 + trametinib co-treatment
  MAPK pathway inhibition (pERK, pMEK, pRSK), single agent: did not display the same pathway inhibition
KSR2:B-RAF^F667E dimers
  enhancement of KSR2:B-RAF dimerization: ~2 fold

## COc1ccc(Nc2ncnc3cc(OC)c(OC)cc23)cc1 [Compound 3, 6,7-Dimethoxy-N-(4-methoxyphenyl)quinazolin-4-amine hydrochloride]
[1]; [5]
  IC50: > 10 µM

## Cc1nc(Nc2ncc(C(=O)Nc3c(C)cccc3Cl)s2)cc(N2CCN(CCO)CC2)n1 [dasatinib, reference compound]
[1]
  KSR binding (assessed): non-KSR binders
[2]
  MAPK pathway inhibition (pERK, pMEK, pRSK) in combination with trametinib: not observed

## Nc1ncnc2c1ncn2[C@@H]1O[C@H](COP(=O)(O)OP(=O)(O)OP(=O)(O)O)[C@@H](O)[C@H]1O [ATP, reference compound]
[1]; competition with free ATP, purified KSR2:MEK1, read-out: free ATP IC50, ATPbiotin labeling of KSR2
  IC50: 86 µM
[4]
  IC50: 133 µM

## CC(C)(C)c1nc(-c2cccc(NS(=O)(=O)c3c(F)cccc3F)c2F)c(-c2ccnc(N)n2)s1 [dabrafenib, reference compound]
[3]
  suppression of KSR-stimulated MEK and ERK phosphorylation: active
[3]; KSR^A690F mutant
  suppression of KSR-stimulated MAPK signaling with active site mutant KSR^A690F: active

## C#Cc1cccc(Nc2ncnc3cc(OCCOC)c(OCCOC)cc23)c1 [erlotinib, reference compound]
[1]
  KSR binding (assessed): non-KSR binders
[2]
  MAPK pathway inhibition (pERK, pMEK, pRSK) in combination with trametinib: not observed

## COc1cc2ncnc(Nc3ccc(O)cc3)c2cc1OC [Compound 7, 4-((6,7-Dimethoxyquinazolin-4-yl)amino)phenol hydrochloride]
[1]; [5]
  IC50: > 10 µM

## CCN(CC)CCNC(=O)c1c(C)[nH]c(/C=C2\C(=O)Nc3ccc(F)cc32)c1C [sutent, reference compound]
[1]
  KSR binding (assessed): non-KSR binders
[2]
  MAPK pathway inhibition (pERK, pMEK, pRSK) in combination with trametinib: not observed
